Measured values: PubChem BioAssay (NCI)
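In this assay, cells in 96-well plates receive the compound at five concentrations for 48 hours. Endpoints are linearly interpolated between the surrounding concentrations. GI50: concentration for 50% inhibition of growth. At the TGI there is no net growth.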

Legend:
Test in all cases: inhibition of tumour cell growth, NCI panel, 48 h
UO-31 renal = tested on: UO-31 renal
HS 578T breast = tested on: HS 578T breast
MALME-3M melanoma = tested on: MALME-3M melanoma
NCI-H522 lung = tested on: NCI-H522 lung
SF-295 CNS = tested on: SF-295 CNS
T-47D breast = tested on: T-47D breast
IGROV1 ovarian = tested on: IGROV1 ovarian
UACC-62 melanoma = tested on: UACC-62 melanoma
HT29 colon = tested on: HT29 colon
LOX IMVI melanoma = tested on: LOX IMVI melanoma
CCRF-CEM leukemia = tested on: CCRF-CEM leukemia
MDA-MB-231 breast = tested on: MDA-MB-231 breast
RXF 393 renal = tested on: RXF 393 renal
SK-OV-3 ovarian = tested on: SK-OV-3 ovarian
OVCAR-3 ovarian = tested on: OVCAR-3 ovarian
NCI-H460 lung = tested on: NCI-H460 lung
M14 melanoma = tested on: M14 melanoma
A549 NSCLC = tested on: A549 NSCLC
SK-MEL-5 melanoma = tested on: SK-MEL-5 melanoma
OVCAR-8 ovarian = tested on: OVCAR-8 ovarian
SN12C renal = tested on: SN12C renal
CAKI-1 renal = tested on: CAKI-1 renal
A498 renal = tested on: A498 renal
SNB-75 CNS = tested on: SNB-75 CNS
UACC-257 melanoma = tested on: UACC-257 melanoma
TK-10 renal = tested on: TK-10 renal
PC-3 prostate = tested on: PC-3 prostate
SF-539 CNS = tested on: SF-539 CNS
OVCAR-5 ovarian = tested on: OVCAR-5 ovarian
HCT-116 colon = tested on: HCT-116 colon
EKVX NSCLC = tested on: EKVX NSCLC
DU-145 prostate = tested on: DU-145 prostate
HOP-92 NSCLC = tested on: HOP-92 NSCLC
786-0 renal = tested on: 786-0 renal
COLO 205 colon = tested on: COLO 205 colon
OVCAR-4 ovarian = tested on: OVCAR-4 ovarian
SR leukemia = tested on: SR leukemia
SK-MEL-2 melanoma = tested on: SK-MEL-2 melanoma
KM12 colon = tested on: KM12 colon
NCI-H226 lung = tested on: NCI-H226 lung
SF-268 CNS = tested on: SF-268 CNS
SK-MEL-28 melanoma = tested on: SK-MEL-28 melanoma
HL-60(TB) leukemia = tested on: HL-60(TB) leukemia
SW-620 colon = tested on: SW-620 colon
K-562 leukemia = tested on: K-562 leukemia
SNB-19 CNS = tested on: SNB-19 CNS
MCF7 breast = tested on: MCF7 breast
ACHN renal = tested on: ACHN renal
RPMI-8226 leukemia = tested on: RPMI-8226 leukemia
HCT-15 colon = tested on: HCT-15 colon
MOLT-4 leukemia = tested on: MOLT-4 leukemia
HCC-2998 colon = tested on: HCC-2998 colon
NCI/ADR-RES ovarian = tested on: NCI/ADR-RES ovarian
HOP-62 NSCLC = tested on: HOP-62 NSCLC
BT-549 breast = tested on: BT-549 breast
MDA-MB-435 = tested on: MDA-MB-435
U251 CNS = tested on: U251 CNS

Structure (SMILES): CC[C@@H](CO)Nc1ccc2ncc(C#Cc3cncc(C(=O)Nc4ccc(CN5CCN(C)CC5)c(C(F)(F)F)c4)c3)n2n1
- GI50 (UO-31 renal): 917 nM
- TGI (UO-31 renal): 1930 nM
- GI50 (HS 578T breast): 59.8 nM
- TGI (HS 578T breast): 451 nM
- GI50 (MALME-3M melanoma): 125 nM
- TGI (MALME-3M melanoma): 544 nM
- GI50 (NCI-H522 lung): 59.2 nM
- TGI (NCI-H522 lung): 157 nM
- GI50 (SF-295 CNS): 413 nM
- TGI (SF-295 CNS): 1390 nM
- GI50 (T-47D breast): 582 nM
- TGI (T-47D breast): 1590 nM
- GI50 (IGROV1 ovarian): 77 nM
- TGI (IGROV1 ovarian): 365 nM
- GI50 (UACC-62 melanoma): 284 nM
- TGI (UACC-62 melanoma): 1100 nM
- GI50 (HT29 colon): 157 nM
- TGI (HT29 colon): 655 nM
- GI50 (LOX IMVI melanoma): 63.4 nM
- TGI (LOX IMVI melanoma): 258 nM
- GI50 (CCRF-CEM leukemia): 26.4 nM
- TGI (CCRF-CEM leukemia): 1310 nM
- GI50 (MDA-MB-231 breast): 48.2 nM
- TGI (MDA-MB-231 breast): 500 nM
- GI50 (RXF 393 renal): 110 nM
- TGI (RXF 393 renal): 333 nM
- GI50 (SK-OV-3 ovarian): 622 nM
- TGI (SK-OV-3 ovarian): 2150 nM
- GI50 (OVCAR-3 ovarian): 167 nM
- TGI (OVCAR-3 ovarian): 954 nM
- GI50 (NCI-H460 lung): 163 nM
- TGI (NCI-H460 lung): 541 nM
- GI50 (M14 melanoma): 118 nM
- TGI (M14 melanoma): 360 nM
- GI50 (A549 NSCLC): 199 nM
- TGI (A549 NSCLC): 768 nM
- GI50 (SK-MEL-5 melanoma): 681 nM
- TGI (SK-MEL-5 melanoma): 1350 nM
- GI50 (OVCAR-8 ovarian): 169 nM
- TGI (OVCAR-8 ovarian): 627 nM
- GI50 (SN12C renal): 45.2 nM
- TGI (SN12C renal): 605 nM
- GI50 (CAKI-1 renal): 142 nM
- TGI (CAKI-1 renal): 458 nM
- GI50 (A498 renal): 1060 nM
- TGI (A498 renal): 1920 nM
- GI50 (SNB-75 CNS): 20.6 nM
- TGI (SNB-75 CNS): 108 nM
- GI50 (UACC-257 melanoma): 390 nM
- TGI (UACC-257 melanoma): 1250 nM
- GI50 (TK-10 renal): 343 nM
- TGI (TK-10 renal): 1180 nM
- GI50 (PC-3 prostate): 272 nM
- TGI (PC-3 prostate): 1790 nM
- GI50 (SF-539 CNS): 32 nM
- TGI (SF-539 CNS): 172 nM
- GI50 (OVCAR-5 ovarian): 236 nM
- TGI (OVCAR-5 ovarian): 1310 nM
- GI50 (HCT-116 colon): 66.1 nM
- TGI (HCT-116 colon): 355 nM
- GI50 (EKVX NSCLC): 142 nM
- TGI (EKVX NSCLC): 1050 nM
- GI50 (DU-145 prostate): 144 nM
- TGI (DU-145 prostate): 543 nM
- GI50 (HOP-92 NSCLC): 67 nM
- TGI (HOP-92 NSCLC): 261 nM
- GI50 (786-0 renal): 282 nM
- TGI (786-0 renal): 986 nM
- GI50 (COLO 205 colon): 89.2 nM
- TGI (COLO 205 colon): 196 nM
- GI50 (OVCAR-4 ovarian): 145 nM
- TGI (OVCAR-4 ovarian): 982 nM
- GI50 (SR leukemia): 34 nM
- TGI (SR leukemia): 534 nM
- GI50 (SK-MEL-2 melanoma): 115 nM
- TGI (SK-MEL-2 melanoma): 339 nM
- GI50 (KM12 colon): 9.27 nM
- TGI (KM12 colon): 793 nM
- GI50 (NCI-H226 lung): 79.6 nM
- TGI (NCI-H226 lung): 635 nM
- GI50 (SF-268 CNS): 109 nM
- TGI (SF-268 CNS): 554 nM
- GI50 (SK-MEL-28 melanoma): 278 nM
- TGI (SK-MEL-28 melanoma): 1100 nM
- GI50 (HL-60(TB) leukemia): 104 nM
- TGI (HL-60(TB) leukemia): 462 nM
- GI50 (SW-620 colon): 81.3 nM
- TGI (SW-620 colon): 281 nM
- GI50 (K-562 leukemia): 5 nM
- TGI (K-562 leukemia): 1640 nM
- GI50 (SNB-19 CNS): 203 nM
- TGI (SNB-19 CNS): 1240 nM
- GI50 (MCF7 breast): 46.9 nM
- TGI (MCF7 breast): 409 nM
- GI50 (ACHN renal): 363 nM
- TGI (ACHN renal): 1180 nM
- GI50 (RPMI-8226 leukemia): 254 nM
- TGI (RPMI-8226 leukemia): 1070 nM
- GI50 (HCT-15 colon): 583 nM
- TGI (HCT-15 colon): 1700 nM
- GI50 (MOLT-4 leukemia): 43.8 nM
- TGI (MOLT-4 leukemia): 693 nM
- GI50 (HCC-2998 colon): 238 nM
- TGI (HCC-2998 colon): 858 nM
- GI50 (NCI/ADR-RES ovarian): 5580 nM
- TGI (NCI/ADR-RES ovarian): 18400 nM
- GI50 (HOP-62 NSCLC): 178 nM
- TGI (HOP-62 NSCLC): 909 nM
- GI50 (BT-549 breast): 614 nM
- TGI (BT-549 breast): 1350 nM
- GI50 (MDA-MB-435): 104 nM
- TGI (MDA-MB-435): 634 nM
- GI50 (U251 CNS): 243 nM
- TGI (U251 CNS): 805 nM
